From patent US20140107051A1, “ISOFLAVONES FOR TREATING MUCOPOLYSACCHARIDOSES” (INSTYTUT FARMACEUTYCZNY, priority 2005, published 2014)
Entries after “also recorded” stand apart in the source; their conditions may differ. Where two headings read alike, the source gives them in different places.

Tests used:
[1] = system: glycosaminoglycan (GAG) synthesis; assay: GAG synthesis, 35S incorp. (Table 4); type: cell-based
[2] = system: cultured human skin fibroblasts derived from patients affected with mucopolysaccharidose; assay: 35S-sulphate incorporation test of glycosaminoglycans synthesis, different human cell lines / MPS types; type: cell-based; details: for influence on GAG synthesis compared with genistein (in words): 30 μM, both cell lines of Table 2
Protocol: (§1) The activity of isoflavones was evaluated by the measure of glycosaminoglycans synthesis in 35S-sulphate incorporation test comprising incubation of the radiolabelled 35S-sulfate into GAGs in cultured human skin fibroblasts derived from normal individuals (control) and patients affected with mucopolysaccharidose (Murata et al., Arch Biochem Biophys 2003; 413: 229-235).
(§2) The negative control was DMSO (diluent for genistein and all derivatives), the positive control—genistein. […] Experiment with each cell line has been repeated twice, and every measurement has been done twice.

[3] = system: MPS IIIA fibroblasts; assay: Number of lysosomal structures by electron microscopy, MPS IIIA; type: cell-based, human; details: 30 μM
[4] = Proliferation 144 h (Table 4); type: cell-based; details: read-out: Proliferation 144 h IC50
[5] = system: cultured human skin fibroblasts derived from normal individuals; assay: 35S-sulphate incorporation test of glycosaminoglycans synthesis, normal cells; type: cell-based; details: for Inhibition in relation to genistein, first symbol (normal cells) / Relative GAG synthesis (converted to 1 cell), Normal cells / activity at 30 µM: 30 μM; for Relative GAG synthesis (converted to 1 cell), Normal cells / activity at 30 µM: DMSO control = 1; for activity at 30 µM: Homo sapiens, Skin fibroblast, read-out: Relative GAG synthesis (converted to 1 cell), Normal cells
Protocol: as §1, §2

[6] = system: MPS IIIB fibroblasts; assay: Number of lysosomal structures by electron microscopy, MPS IIIB; type: cell-based, human; details: 30 μM
[7] = system: fibroblasts of patients affected with MPS I; assay: 35S-sulphate incorporation test of glycosaminoglycans synthesis, MPS I cells; type: cell-based, human; details: for Inhibition in relation to genistein, second symbol (MPS I) / Relative GAG synthesis (converted to 1 cell), MPS I / activity at 30 µM: 30 μM; for Relative GAG synthesis (converted to 1 cell), MPS I / activity at 30 µM: DMSO control = 1; for activity at 30 µM: Homo sapiens, Fibroblast, read-out: Relative GAG synthesis (converted to 1 cell), MPS I
Protocol: as §1, §2

[8] = rat; intravenously administered; cited from earlier work
[9] = system: fibroblasts cells derived from patients affected with different MPSs; assay: GAG level / deposits in cultured fibroblasts of MPS patients; type: cell-based, human
[10] = system: fibroblasts; assay: Electron microscope observation of GAG deposits in fibroblasts; type: cell-based, human; details: fibroblasts cultured one week; genistein 10 micromolar
[11] = in vitro
[12] = read-out: Cytotoxicity 24 h LC50, 24 h
[13] = read-out: Cytotoxicity 48 h LC50, 48 h

Structure (SMILES)	CC50 [12]	CC50 [13]	GAG synthesis 35S incorp. [1]	influence on GAG synthesis compared with genistein (in words) [2]	Number of structures per 100 μm^2 of cellular cross section ± SD, amorphous [3]	Number of structures per 100 μm^2 of cellular cross section ± SD, complexed [3]	Number of structures per 100 μm^2 of cellular cross section ± SD, lamellar [3]	Number of structures per 100 μm^2 of cellular cross section ± SD, total number [3]	IC50 [4]	Inhibition in relation to genistein, first symbol (normal cells) [5]	Relative GAG synthesis (converted to 1 cell), Normal cells [5]	Number of structures per 100 μm^2 of cellular cross section ± SD, amorphous [6]	Number of structures per 100 μm^2 of cellular cross section ± SD, complexed [6]	Number of structures per 100 μm^2 of cellular cross section ± SD, lamellar [6]	Number of structures per 100 μm^2 of cellular cross section ± SD, total number [6]	Relative GAG synthesis (converted to 1 cell), MPS I [7]	also measured
CCC(=O)OCOc1cc(O)c2c(=O)c(-c3ccc(O)cc3)coc2c1 [IFG-036]	> 30 µM	> 30 µM	64 ± 21%	an activity comparable with genistein	0.22 ± 0.11 per 100 μm^2	0.28 ± 0.16 per 100 μm^2	0.19 ± 0.14 per 100 μm^2	0.73 ± 0.31 per 100 μm^2	11.2 µM	0/0	0.27	0.15 ± 0.18 per 100 μm^2	0.12 ± 0.11 per 100 μm^2	0.25 ± 0.21 per 100 μm^2	0.50 ± 0.34 per 100 μm^2	0.49	Inhibition in relation to genistein, second symbol (MPS I) [7]: 0/0
Cc1ccc(S(=O)(=O)OCCOCCOCCOc2cc(O)c3c(=O)c(-c4ccc(O)cc4)coc3c2)cc1 [IFG-046]	20.7 µM		118 ± 72%							−	1.80					0.49	Inhibition in relation to genistein, second symbol (MPS I) [7]: 0
O=C([O-])CCCC(=O)Oc1ccc(-c2coc3cc(OCc4ccccc4)cc(O)c3c2=O)cc1.[Na+] [IFG-061]	18.8 µM									0/0	0.28					0.46	
CCCC[N+](CCCC)(CCCC)CCCC.O=C([O-])CCCC(=O)Oc1cc(O)c2c(=O)c(-c3ccc(O)cc3)coc2c1 [IFG-038]	> 30 µM	> 30 µM	55 ± 13%	an activity comparable with genistein	0.21 ± 0.13 per 100 μm^2	0.27 ± 0.13 per 100 μm^2	0.32 ± 0.16 per 100 μm^2	0.80 ± 0.24 per 100 μm^2	19.9 µM		0.74	0.09 ± 0.09 per 100 μm^2	0.10 ± 0.10 per 100 μm^2	0.21 ± 0.12 per 100 μm^2	0.41 ± 0.18 per 100 μm^2	0.74	
O=c1c(-c2ccc(O)cc2)coc2cc(O)cc(O)c12 [Genistein, 4′,5,7-trihydroxy-3-phenylchromen-4-on, reference compound]									16.9 µM	0							effectiveness of crossing the blood-brain barrier [8]: about 10%; glycosaminoglycans synthesis (in words) ([2]; cells from individuals with other types of MPS, FIG. 2, FIG. 3): significantly reduced; glycosaminoglycans synthesis (in words) ([2]; cultured fibroblasts from MPS patients, 10-30 micromoles/l): significant inhibition of glycosaminoglycans synthesis; level of glycosaminoglycans in cells (in words) ([9]; cells of MPS I, MPS II, MPS IIIA and MPS IIIB patients, six days): significantly decreased, reaching after six days a level almost identical with the normal one; genistein concentrations at which decrease of GAG synthesis and reduction of deposits is observed ([9]; cultured fibroblasts): 10 to 20 µmol/L; removal of GAG deposits accumulated in cells (in words) ([9]; few days of cultivation, genistein 10 micromoles/l, FIG. 4): deposits are gradually removed; also recorded: comparable with the activity of recombinant human α-L-iduronidase (Aldurazyme); activity at 30 µM [5]: 25%; level of glycosaminoglycans synthesis (in words) ([5]; fibroblasts from normal individuals, FIG. 1): significant decreasing; deposits seen by electron microscope (in words) [10]: disappearance of deposits; also recorded: decline of the before accumulated glycosaminoglycans; activity at 30 µM [7]: 51%; level of glycosaminoglycans synthesis (in words) ([7]; fibroblasts from MPS 1 patients, FIG. 1): significant decreasing
CC(=O)Oc1ccc(-c2coc3cc(OC(C)=O)cc(OC(C)=O)c3c2=O)cc1 [IFG-032]				an activity comparable with genistein, but only for one cell line	0.17 ± 0.16 per 100 μm^2	0.22 ± 0.11 per 100 μm^2	0.14 ± 0.08 per 100 μm^2	0.53 ± 0.19 per 100 μm^2	17.4 µM	0		0.12 ± 0.08 per 100 μm^2	0.10 ± 0.07 per 100 μm^2	0.17 ± 0.11 per 100 μm^2	0.40 ± 0.20 per 100 μm^2		activity at 30 µM [5]: 25%; CC50 at 24 h [11]: > 30 µM; CC50 at 48 h [11]: > 30 µM; activity at 30 µM [7]: 68%
CCCC[N+](CCCC)(CCCC)CCCC.O=C([O-])COc1cc(O)c2c(=O)c(-c3ccc(O)cc3)coc2c1 [IFG-074, tetrabutylammonium[5-hydroxy-3-(4-hydroxy-phenyl)-4-oxo-4H-chromen-7-yloxy]acetate]	44.1 µM	32.8 µM	88 ± 39%						27.3 µM								
